Source: patent publication US12564582B2 (Prilenia Neurotherapeutics Ltd., priority 2016, dated 2026)
Like-named read-outs stand apart in the source and are kept apart here.

Key:
[1] = system: patients with Huntington's disease;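 on Δ to placebo, change from baseline in UHDRS TMS Finger Tapping+Pronate-Supinate Hands: finger tapping item rates tapping with fingers of both hands, normal being 15 taps within 5 s, the combined score adds forearm pronation and supination on each side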;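 on Δ to placebo, change from baseline in UHDRS TMS Finger Taps: finger tapping item rates tapping with fingers of both hands, normal being 15 taps within 5 s, the combined score adds forearm pronation and supination on each side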
Description: The study also compared data from all patients to those obtained in HD subpopulations.
The primary efficacy variable and endpoint for this study was change from baseline in the UHDRS TMS (defined as the sum of all UHDRS motor domains ratings) at Week 26 or Week 52. The primary measure of motor impairment is the UHDRS motor assessment section, which was administered by a trained examiner. The first part of the motor assessment consisted of five TMS subscores, provided below. The sum total of all the 31 items is referred to as the Total Motor Score (TMS). The secondary efficacy variable and endpoint was change from baseline in the mPPT at Week 26 or Week 52. The TMS scale includes measurement of dystonia.
It is a research tool which has been developed to provide a uniform assessment of the clinical features and course of HD. The TMS component of UHDRS comprises 31 assessments from the 15 items of the UHDRS, with each assessment rated on a 5-point scale from 0 (normal) to 4 (maximally abnormal).
The change from baseline in UHDRS-TMS was analyzed using a Repeated Measures model (SAS® MIXED procedure with REPEATED sub-command). The model includes the following fixed effects: categorical week in study by treatment interaction, center, neuroleptic use or no use, and baseline UHDRS-TMS score. The unstructured covariance matrix for repeated observations within patients was used.

[2] = system: patients with Huntington's disease; remark: listed apart in the source;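 on Δ to placebo, change from baseline in UHDRS TMS Finger Taps: finger tapping item rates tapping with fingers of both hands, normal being 15 taps within 5 s, the combined score adds forearm pronation and supination on each side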
Source text: Finger Taps and Pronate-Supinate (P/S) hands is a combination of finger tapping (the ability to tap the fingers of both hands where 15 repetitions in 5 seconds is considered normal) with pronation/supination (the ability to rotate the forearm and hand such that the palm is down (pronation) and to rotate the forearm and hand such that the palm is up (supination) on both sides of the body).
The hand movement score is defined as the sum of UHDRS domains finger taps, pronate-supinate hands and luria (fist-hand-palm test).
An assessment of the ability to rotate the forearm and hand such that the palm is down (pronation) and to rotate the forearm and hand such that the palm is up (supination) on both sides of the body.

[3] = system: patients with Huntington's disease; details: 45 mg bid, Week 52;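 on Δ to placebo, change from baseline in UHDRS TMS Finger Taps: finger tapping item rates tapping with fingers of both hands, normal being 15 taps within 5 s, the combined score adds forearm pronation and supination on each side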
Source text: Motor deficits can be objectively assessed using different Q-Motor assessments. All Q-Motor assessments are based on the application of precalibrated and temperature controlled force transducers and 3-dimensional position sensors with very high sensitivity and test-retest reliability across sessions and sites in a multicenter clinical study. Q-Motor measures thus aim to reduce the limited sensitivity of categorical clinical rating scales, the intra- and inter-rater variability, and placebo effects observed in scales such as UHDRS-TMS. In addition, Q-Motor assessments allow for the objective monitoring of unintended motor side-effects in clinical studies. Thus, Q-Motor is an objective, reliable, and sensitive measure of motor function that is free of rater bias and limits placebo effect influence.
This task assessed the regularity of hand taps performed when alternating between the palm and dorsal surface of the hand performing a repetitive pronation/supination movement. The force and duration of the hand taps are recorded similarly to the speeded tapping task. A tone cues the start and end of an assessment. Five trials of 10 seconds duration are performed with each hand.

[4] = 45 mg bid, score at week 26, patients who have completed 52 weeks of treatment
[5] = 45 mg bid, score at week 52, patients who have completed 52 weeks of treatment
[6] = 67.5 mg bid, score at week 26, patients who have completed 52 weeks of treatment
[7] = 67.5 mg bid, score at week 52, patients who have completed 52 weeks of treatment
[8] = 90 mg bid, score at week 26, patients who have completed 52 weeks of treatment
[9] = 90 mg bid, score at week 52, patients who have completed 52 weeks of treatment
[10] = 112.5 mg bid, score at week 26, patients who have completed 52 weeks of treatment
[11] = 112.5 mg bid, score at week 52, patients who have completed 52 weeks of treatment

CCCN1CCC(c2cccc(S(C)(=O)=O)c2)CC1 [pridopidine, 4-[3-(methylsulfonyl)phenyl]-1-propyl-piperidine]
UHDRS-TMS change from baseline over time ([1]; 45 mg bid, HD1 patients, after 52 weeks): improvement in TMS score
Δ to placebo, change from baseline in UHDRS TMS ([1]; 45 mg bid, Week 26, ALL): 1.42
Δ to placebo, change from baseline in UHDRS TMS ([1]; 45 mg bid, Week 26, Stage 1 BL TFC 11-13): −4.47
Δ to placebo, change from baseline in UHDRS TMS ([1]; 45 mg bid, Week 52, ALL): 0.59
Wk 52 Δ to placebo, change from baseline in UHDRS TMS ([1]; 45 mg bid, Week 52, Stage 1 BL TFC 11-13): −5.32
TMS change from baseline vs historical placebo ([1]; 45 mg bid, historical placebo in HART and MermaiHD): significant
Δ to placebo, change from baseline in UHDRS TMS ([1]; 67.5 mg bid, Week 26, ALL): 1.71
Δ to placebo, change from baseline in UHDRS TMS ([1]; 67.5 mg bid, Week 26, Stage 1 BL TFC 11-13): −3
Δ to placebo, change from baseline in UHDRS TMS ([1]; 67.5 mg bid, Week 52, ALL): 2.55
Wk 52 Δ to placebo, change from baseline in UHDRS TMS ([1]; 67.5 mg bid, Week 52, Stage 1 BL TFC 11-13): −0.84
Δ to placebo, change from baseline in UHDRS TMS ([1]; 90 mg bid, Week 26, ALL): 0.67
UHDRS TMS score at week 26 compared to baseline ([1]; 90 mg bid, Week 26, BL TFC 11-13, read from FIG. 8b): about −8
Δ to placebo, change from baseline in UHDRS TMS ([1]; 90 mg bid, Week 26, Stage 1 BL TFC 11-13): −6.15
Δ to placebo, change from baseline in UHDRS TMS ([1]; 90 mg bid, Week 52, ALL): 1.78
Wk 52 Δ to placebo, change from baseline in UHDRS TMS ([1]; 90 mg bid, Week 52, Stage 1 BL TFC 11-13): −7.1
Total Motor Score (TMS) change from baseline, treatment effect ([1]; 90 mg bid, compared with other doses): largest treatment effect
TMS change from baseline vs historical placebo ([1]; 90 mg bid, historical placebo in HART and MermaiHD): significant
Total Motor Score (TMS) change from baseline, difference vs historical placebo ([1]; 90 mg bid, week 26, historical placebo in HART and MermaiHD): ~6.5 TMS point
Δ to placebo, change from baseline in UHDRS TMS ([1]; 112.5 mg bid, Week 26, ALL): 2.1
Δ to placebo, change from baseline in UHDRS TMS ([1]; 112.5 mg bid, Week 26, Stage 1 BL TFC 11-13): −4.79
Δ to placebo, change from baseline in UHDRS TMS ([1]; 112.5 mg bid, Week 52, ALL): 2.71
Wk 52 Δ to placebo, change from baseline in UHDRS TMS ([1]; 112.5 mg bid, Week 52, Stage 1 BL TFC 11-13): −0.92
Δ to placebo, change from baseline in UHDRS TMS Finger Taps ([2]; 45 mg bid, Week 26, ALL): −0.3
Δ to placebo, change from baseline in UHDRS TMS Finger Taps ([2]; 45 mg bid, Week 26, BL TFC≥9, CAG Repeats <44, BL TMS 1st 3 Qs): −0.87
Δ to placebo, change from baseline in UHDRS TMS Finger Taps ([2]; 45 mg bid, Week 26, BL TFC≥9 and CAG Repeats>44): −0.86
Δ to placebo, change from baseline in UHDRS TMS Finger Tapping+Pronate-Supinate Hands [2, 4]: −0.79
Δ to placebo, change from baseline in UHDRS TMS Finger Taps [2, 4]: −0.59
Δ to placebo, change from baseline in UHDRS TMS Finger Tapping+Pronate-Supinate Hands [2, 5]: −0.37
Δ to placebo, change from baseline in UHDRS TMS Finger Taps [2, 5]: −0.31
Δ to placebo, change from baseline in UHDRS TMS Finger Taps ([2]; 67.5 mg bid, Week 26, ALL): −0.07
Δ to placebo, change from baseline in UHDRS TMS Finger Taps ([2]; 67.5 mg bid, Week 26, BL TFC≥9, CAG Repeats <44, BL TMS 1st 3 Qs): −0.36
Δ to placebo, change from baseline in UHDRS TMS Finger Taps ([2]; 67.5 mg bid, Week 26, BL TFC≥9 and CAG Repeats>44): −0.34
Δ to placebo, change from baseline in UHDRS TMS Finger Tapping+Pronate-Supinate Hands [2, 6]: 0.02
Δ to placebo, change from baseline in UHDRS TMS Finger Taps [2, 6]: −0.13
Δ to placebo, change from baseline in UHDRS TMS Finger Tapping+Pronate-Supinate Hands [2, 7]: 0.68
Δ to placebo, change from baseline in UHDRS TMS Finger Taps [2, 7]: 0.13
Δ to placebo, change from baseline in UHDRS TMS Finger Taps ([2]; 90 mg bid, Week 26, ALL): −0.07
Δ to placebo, change from baseline in UHDRS TMS Finger Taps ([2]; 90 mg bid, Week 26, BL TFC≥9, CAG Repeats <44, BL TMS 1st 3 Qs): −0.54
Δ to placebo, change from baseline in UHDRS TMS Finger Taps ([2]; 90 mg bid, Week 26, BL TFC≥9 and CAG Repeats>44): −0.52
Δ to placebo, change from baseline in UHDRS TMS Finger Tapping+Pronate-Supinate Hands [2, 8]: 0.02
Δ to placebo, change from baseline in UHDRS TMS Finger Taps [2, 8]: −0.01
Δ to placebo, change from baseline in UHDRS TMS Finger Tapping+Pronate-Supinate Hands [2, 9]: 0.48
Δ to placebo, change from baseline in UHDRS TMS Finger Taps [2, 9]: 0.08
Δ to placebo, change from baseline in UHDRS TMS Finger Taps ([2]; 112.5 mg bid, Week 26, ALL): −0.12
Δ to placebo, change from baseline in UHDRS TMS Finger Taps ([2]; 112.5 mg bid, Week 26, BL TFC≥9, CAG Repeats <44, BL TMS 1st 3 Qs): −1.05
Δ to placebo, change from baseline in UHDRS TMS Finger Taps ([2]; 112.5 mg bid, Week 26, BL TFC≥9 and CAG Repeats>44): −1.07
Δ to placebo, change from baseline in UHDRS TMS Finger Tapping+Pronate-Supinate Hands [2, 10]: −0.23
Δ to placebo, change from baseline in UHDRS TMS Finger Taps [2, 10]: −0.21
Δ to placebo, change from baseline in UHDRS TMS Finger Tapping+Pronate-Supinate Hands [2, 11]: 0.28
Δ to placebo, change from baseline in UHDRS TMS Finger Taps [2, 11]: 0.1
Wk 52 Δ to placebo, change from baseline in Q-Motor: Pro-Sup-Frequency-MN-Hand ([3]; FAS): 0.0599 Hz
Wk 52 Δ to placebo, change from baseline in Q-Motor: Pro-Sup-Frequency-MN-Hand ([3]; HD1 and HD2 patients): 0.1195 Hz
